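Assay format: 96-well plates, 48-hour exposure. Abbreviation: GI50, concentration required for 50% inhibition of growth. TGI is the concentration that stops growth completely.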 Where only a bound is given, the exact number is not on record here.

TGI and GI50 data for 22 molecules are collected here from PubChem BioAssay (NCI).

What all share (experiment): NCI tumour cell line growth inhibition, 48 h
In assay [1] the test system is 786-0 renal.
The test system of assay [2] is ACHN renal.
The subject of assay [3] is HCC-2998 colon.
The test system of assay [4] is HCT-15 colon.
Assay [5] has as its system HL-60(TB) leukemia.
In assay [6] the test system is MALME-3M melanoma.
In assay [7] the test system is MDA-MB-435.
The test system of assay [8] is MDA-N.
In assay [9] the test system is OVCAR-8 ovarian.
Assay [10] relates to SF-268 CNS.
Assay [11] deals with SK-OV-3 ovarian.

`CC1CC[C@]2(C(=O)O)CCC3(C)C(=C2[C@H]1C)C=CC1[C@@]2(C)CC[C@H](O)C(C)(C)C2CC[C@]13C` (stereo partly drawn): the TGI in assay [1] is greater than 100 µM; in assay [2] it was 48.2 µM; in [3], 73.8 µM; in assay [4] it was greater than 100 µM; in assay [5], greater than 100 µM; in [6], 73.2 µM. Also, the TGI in assay [7] is greater than 100 µM; in assay [8], greater than 100 µM; in assay [9] it was greater than 100 µM; in [10], greater than 100 µM; in assay [11] it was 45.5 µM.

Take `CC(NC(=O)c1ccc(OP(=O)(OCC2=CC(=O)c3ccccc3C2=O)N(C)CCCCCl)cc1)c1ccc(OCC2CCCCC2)c(C(N)=O)c1` (stereo not drawn): the TGI turned out to be 28.6 µM in [1]; 29.2 µM in assay [2]; 4.05 µM in assay [3]; 24.7 µM in [4]; 41.1 µM in [5]; 3.97 µM in assay [6]. For the same molecule, the TGI in assay [7] was determined as 5.68 µM; in [8], 13 µM; in assay [9], 29.6 µM; in assay [10] it was 26.2 µM; in assay [11] it was 48.8 µM.

Take `CN(C)CCOc1ccc(-c2c(Oc3ccc(Cl)cc3)c(=O)oc3ccccc23)cc1`: the TGI is greater than 27.9 µM in [1]; greater than 48.5 µM in [2]; 12.3 µM in assay [3]; 22.8 µM in assay [4]; greater than 100 µM in assay [5]; 25.3 µM in assay [6]. Also, the TGI in assay [7] is greater than 31.2 µM; in assay [8], 13.5 µM; in [9], greater than 42.8 µM; in assay [10], 29.5 µM; in [11], 65.7 µM.

As to `O=S1(=O)c2ccccc2N2CCCc3cc(Cl)cc1c32`, the TGI in assay [1], in assay [2], in [3], in [4], in [5] and in assay [6] was greater than 100 µM throughout. For the same molecule, the TGI in assay [7], in [8], in [9], in [10] and in assay [11] was greater than 100 µM each time.

In the case of `CCn1c2c(c3c(C(=O)OC)c(O)ccc31)C(=O)c1ccccc1C2=O`, the TGI was determined as 25.4 µM in assay [1]; 21.9 µM in assay [2]; 34.9 µM in assay [3]; 30.1 µM in assay [4]; 57.3 µM in assay [5]; 35 µM in assay [6]. The TGI in assay [7] amounted to 32.4 µM; in assay [8], 29.9 µM; in assay [9] it was 30.7 µM; in [10], 69.6 µM; in assay [11], 30.4 µM.

For `Cc1nc2ccccc2n1CCc1nc2ccccc2s1`, the TGI is greater than 100 µM in [1]; greater than 100 µM in [2]; greater than 100 µM in assay [3]; greater than 100 µM in assay [4]; 60.8 µM in [5]; greater than 100 µM in assay [6]. The TGI in assay [7], in assay [8], in assay [9], in assay [10] and in assay [11] was greater than 100 µM throughout.

As for `COc1ccc(N=C/C=C/Nc2ccc(OC)cc2)cc1`, the TGI in assay [1] was found to be 15.6 µM; in assay [2] it was 29 µM; in assay [3], 22.1 µM; in assay [4] it was 14.9 µM; in assay [5], 8.45 µM; in assay [6], 23.9 µM. In addition, the TGI turned out to be 24 µM in [7]; 14.4 µM in assay [8]; 9.9 µM in assay [9]; 21.3 µM in assay [10]; 34.3 µM in assay [11].

For the molecule `CCCCCC(C)C[C@H]1CO[C@H](c2ccc[nH]2)N[C@H]1C(=O)OC` (stereo partly drawn), the TGI in assay [1], in assay [2], in assay [3], in assay [4], in [5] and in assay [6] was greater than 100 µM each time. Besides, the TGI in assay [7], in [8], in assay [9], in assay [10] and in assay [11] was greater than 100 µM in each case.

In the case of `NNC(=O)c1ccccc1NC(=O)/C(=C/c1ccccc1)NC(=O)c1ccccc1`, the TGI in [1], in [2], in [3], in assay [4], in assay [5] and in assay [6] was greater than 100 µM in each case. Besides, the TGI in [7], in [8], in [9], in assay [10] and in [11] was greater than 100 µM in each case.

In the case of `CC(=O)C(=C(I)I)c1ccccc1`, the TGI in assay [1] was 40.3 µM; in assay [2], 35.2 µM; in assay [3], 72 µM; in assay [4] it was greater than 100 µM; in assay [5], 48.2 µM; in assay [6] it was 25.6 µM. Moreover, the TGI was 29.9 µM in [7]; 39.9 µM in assay [8]; 39.6 µM in assay [9]; 52.6 µM in assay [10]; greater than 100 µM in assay [11].

In the case of `COc1ccc(CN=CN/C(C#N)=C(\N)C#N)cc1OC`, the TGI in [1], in [2], in assay [3], in assay [4], in assay [5] and in assay [6] was greater than 100 µM in each case. The TGI in assay [7], in [8], in assay [9], in assay [10] and in assay [11] was greater than 100 µM each time.

`COc1cccc(C2c3cc4c(cc3OC(N3CCOCC3)C2C)OCO4)c1O` (stereo not drawn): the TGI in assay [1] was 53.6 µM; in assay [2], 72 µM; in assay [3], 21.9 µM; in assay [4] it was 27.9 µM; in [5], 6.69 µM; in assay [6], greater than 78.6 µM. The TGI in assay [7] is 6.57 µM; in assay [8], 4.58 µM; in assay [9], 60.1 µM; in [10] it was greater than 79.1 µM; in assay [11], 75.6 µM.

In the case of `Nc1cc(CO)cc(Nc2c3ccccc3nc3occc23)c1`, the TGI is 77.4 µM in assay [1]; greater than 100 µM in [2]; greater than 100 µM in [3]; greater than 100 µM in [4]; 74.4 µM in assay [5]; greater than 100 µM in [6]. Also, the TGI is 41.9 µM in assay [7]; greater than 100 µM in [8]; greater than 100 µM in assay [9]; 87.3 µM in [10]; greater than 100 µM in assay [11].

Regarding `CC1(C)C2CCC1C(=O)C(C=O)C2` (stereo not drawn), the TGI in [1], in assay [2], in assay [3], in [4], in assay [5] and in assay [6] was greater than 100 µM in each case. Besides, the TGI in assay [7], in assay [8], in assay [9], in [10] and in assay [11] was greater than 100 µM throughout.

As for `Fc1cccc2nc(-c3ccccc3)cc(OCc3ccccc3)c12`, the TGI in [1], in assay [2], in assay [3], in assay [4], in assay [5] and in [6] was greater than 100 µM each time. Also, the TGI in assay [7], in assay [8], in assay [9], in [10] and in [11] was greater than 100 µM throughout.

Turning to `CC(=O)Nc1ccc(Nc2nc(=O)[nH]c(=O)[nH]2)cc1`, the TGI in [1], in [2], in assay [3], in [4], in assay [5] and in assay [6] was greater than 100 µM each time. For the same molecule, the TGI in assay [7], in [8], in [9], in assay [10] and in [11] was greater than 100 µM in each case.

Consider `CN(C)Cc1cc(C(=O)O)cc(CN(C)C)c1O`, for which the TGI in [1], in assay [2], in assay [3], in assay [4], in assay [5] and in assay [6] was greater than 100 µM each time. Further, the TGI in assay [7], in assay [8], in assay [9], in assay [10] and in [11] was greater than 100 µM in each case.

With `COc1cc2c(cc1OCCCC(=O)Nc1cc(C(=O)Nc3cc(C(=O)NCCCN(C)C)n(C)n3)n(C)n1)N=CC1CCCN1C2=O` (stereo not drawn), the TGI in assay [1] amounted to 35.5 µM; in assay [2], 29.7 µM; in assay [3], 37.9 µM; in assay [4] it was 37.6 µM; in assay [5], 32.1 µM; in assay [6], 31.5 µM. The TGI was 39 µM in [7]; 31.6 µM in assay [8]; 53.2 µM in assay [9]; 41.2 µM in assay [10]; greater than 100 µM in assay [11].

`NS(=O)(=O)c1ccc(/C=C/c2cccc(O)c2)cc1`: the TGI was greater than 100 µM in [1]; 99.6 µM in assay [2]; greater than 100 µM in assay [3]; greater than 100 µM in [4]; greater than 100 µM in [5]; greater than 100 µM in assay [6]. Also, the TGI in assay [7] was greater than 100 µM; in [8], greater than 100 µM; in assay [9], 58.7 µM; in assay [10] it was greater than 100 µM; in assay [11] it was greater than 100 µM. Moreover, the GI50 was 25.8 µM in [2]; 22.8 µM in assay [4]; 41.4 µM in assay [5]; 25.8 µM in assay [7]; 25.2 µM in [9]; 65.6 µM in assay [10].

On to `COc1cc2[nH]c(-c3ccccc3)cc(=O)c2cc1OC`, for which the TGI in [1] is greater than 100 µM; in assay [2], greater than 100 µM; in assay [3], greater than 87.4 µM; in [4], 97.9 µM; in [5] it was 41 µM; in assay [6], greater than 100 µM. Further, the TGI is 12.2 µM in assay [7]; 6.44 µM in [8]; greater than 89.4 µM in assay [9]; greater than 100 µM in assay [10]; greater than 100 µM in assay [11].

`COC(=O)/C=C1/OC(c2ccccc2)=C(Cl)C1=O`: the TGI was found to be 33.7 µM in [1]; 33 µM in assay [2]; 38.9 µM in [3]; 25.4 µM in assay [4]; 16.2 µM in assay [5]; 36 µM in assay [6]. For the same molecule, the TGI was 39.5 µM in assay [7]; 43 µM in assay [8]; 48.7 µM in [9]; 48.1 µM in assay [10]; greater than 100 µM in assay [11].

On to `COc1ccc2nc3c([N+](=O)[O-])ccc4c3c(c2c1)NCCN4C`, for which the TGI in [1] was 3.37 µM; in assay [2], 5.92 µM; in [3] it was 4.63 µM; in [4], 2.96 µM; in assay [5], greater than 100 µM; in [6], 2.6 µM. Further, the TGI in assay [7] is 2.4 µM; in assay [8], 2.21 µM; in assay [9], 14.9 µM; in [10], 7.63 µM; in assay [11] it was 9.23 µM.
